US9328083B2, “2-aminated methylene or 2-esterified methylene tanshinone derivatives, and preparation method and application thereof” (HANGZHOU BENSHENG PHARMACEUTICAL CO., LTD., priority 2011, dated 2016)
Converted amounts (≈) assume the structure as drawn.

Assays:
[1] = system: RPMI8226 (multiple myeloma); assay: MTT growth inhibition of multiple myeloma cells, 72 h; assay type: cell-based, human; settings: Homo sapiens, RPMI 8226, 72 h; for IC50: read-out: IC50; for IC90: read-out: IC90
Summary of the method: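 Viability read by MTT after 72 h at 37° C, 5% CO2: compounds from a 10 mg/mL DMSO stock were diluted in medium and added at several concentrations to 6000 RPMI8226 cells per well in 1640 medium plus 10% FBS.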

[2] = system: Kasumi-1 (acute myeloid leukemia M2 type, AML-M2); assay: MTT growth inhibition of leukemia cells, 72 h; assay type: cell-based, human; settings: Homo sapiens, Kasumi-1, 72 h; for IC50: read-out: IC50; for IC90: read-out: IC90
Summary of the method: (§1)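 Readout is MTT viable-cell determination after 72 h exposure (37° C, 5% CO2) to compounds added at several concentrations one day after plating 6000 cells/well. Medium RPMI-1640 plus 10% fetal bovine serum; working solutions made from a 10 mg/mL DMSO stock.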

[3] = system: NB4 (acute promyelocytic leukemia, AML); assay: MTT growth inhibition of leukemia cells, 72 h; assay type: cell-based, human; settings: Homo sapiens, NB4, 72 h; for IC50: read-out: IC50; for IC90: read-out: IC90
Summary of the method: as §1

[4] = system: Jurkat (acute lymphoblastic leukemia, ALL); assay: MTT growth inhibition of leukemia cells, 72 h; assay type: cell-based, human; settings: Homo sapiens, 72 h; for IC50: read-out: IC50; for IC90: read-out: IC90
Summary of the method: as §1

[5] = system: K562/adr (drug-resistant, chronic myeloid leukemia, CML); assay: MTT growth inhibition of leukemia cells, 72 h; assay type: cell-based, human; settings: Homo sapiens, K562/Adr; for IC50: read-out: IC50; for IC90: read-out: IC90
Summary of the method: as §1

[6] = system: H9 (acute lymphoblastic leukemia, ALL); assay: MTT growth inhibition of leukemia cells, 72 h; assay type: cell-based, human; settings: Homo sapiens, H9, 72 h; for IC50: read-out: IC50; for IC90: read-out: IC90
Summary of the method: as §1

[7] = system: U87 MG (malignant glioma cell); assay: MTT growth inhibition of human solid tumor cells, 72 h; assay type: cell-based; settings: Homo sapiens, U-87 MG, U87-MG, 72 h; for IC50: read-out: IC50; for IC90: read-out: IC90
Summary of the method: (§2)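 Dosing: several concentrations of each derivative, prepared by medium dilution of a DMSO stock (10 mg/mL). Cells plated at 4000/well, 24 h prior. Viability determined at end.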

A549 (human lung cancer) = assay: as above; assay type: cell-based; settings: Homo sapiens, A549, 72 h; for IC50: read-out: IC50; for IC90: read-out: IC90
Summary of the method: as §2

[8] = system: Becap37 (human breast cancer cell); assay: as above; assay type: cell-based; settings: Homo sapiens, Becap-37, 72 h; for IC50: read-out: IC50; for IC90: read-out: IC90
Summary of the method: as §2

[9] = system: Hep G2 (human liver cancer cell); assay: as above; assay type: cell-based; settings: Homo sapiens, HepG2, Hep G2, 72 h; for IC50: read-out: IC50; for IC90: read-out: IC90
Summary of the method: as §2

[10] = system: CNE (nasopharyngeal carcinoma cell); assay: as above; assay type: cell-based; settings: Homo sapiens; for IC50: read-out: IC50; for IC90: read-out: IC90
Summary of the method: as §2

[11] = system: PANC-1 (pancreatic cancer); assay: as above; assay type: cell-based; settings: Homo sapiens, PANC-1, 72 h; for IC50: read-out: IC50; for IC90: read-out: IC90
Summary of the method: as §2

[12] = system: CaES-17 (esophageal cancer cell); assay: as above; assay type: cell-based; settings: Homo sapiens, CaEs17, CaEs-17, 72 h; for IC50: read-out: IC50; for IC90: read-out: IC90
Summary of the method: as §2

PC-3 (prostate cancer) = assay: as above; assay type: cell-based; settings: Homo sapiens, PC-3, 72 h; for IC50: read-out: IC50; for IC90: read-out: IC90
Summary of the method: as §2

[13] = system: RKO (human colon adenocarcinoma cell); assay: as above; assay type: cell-based; settings: Homo sapiens; for IC50: read-out: IC50; for IC90: read-out: IC90
Summary of the method: as §2

[14] = system: Hep-2 (laryngeal carcinoma); assay: as above; assay type: cell-based; settings: Homo sapiens, HEp-2, 72 h; for IC50: read-out: IC50; for IC90: read-out: IC90
Summary of the method: as §2

[15] = system: Hela (human cervical cancer cell); assay: as above; assay type: cell-based; settings: Homo sapiens, HeLa, 72 h; for IC50: read-out: IC50; for IC90: read-out: IC90
Summary of the method: as §2

[16] = system: MGC 803 (human gastric cancer cell); assay: as above; assay type: cell-based; settings: Homo sapiens, MGC-803, 72 h; for IC50: read-out: IC50; for IC90: read-out: IC90
Summary of the method: as §2

[17] = system: SK-OV-3 (ovarian cancer cell); assay: as above; assay type: cell-based; settings: Homo sapiens, SK-OV-3, 72 h; for IC50: read-out: IC50; for IC90: read-out: IC90
Summary of the method: as §2

MG63 (osteosarcoma) = assay: as above; assay type: cell-based; settings: Homo sapiens, MG-63, 72 h; for IC50: read-out: IC50; for IC90: read-out: IC90
Summary of the method: as §2

## Cc1c(CN(C)CCOC(=O)CNC(=O)OC(C)(C)C)oc2c1C(=O)C(=O)c1c-2ccc2c(C)cccc12 [BS-TA-72]
[1]
  IC50: 0.12 µg/mL (≈ 0.231 µM)
  IC90: 0.87 µg/mL (≈ 1.67 µM)
[2]
  IC50: 0.28 µg/mL (≈ 0.538 µM)
  IC90: 0.47 µg/mL (≈ 0.903 µM)
[3]
  IC50: 0.35 µg/mL (≈ 0.672 µM)
  IC90: 0.71 µg/mL (≈ 1.36 µM)
[4]
  IC50: 0.31 µg/mL (≈ 0.595 µM)
  IC90: 0.99 µg/mL (≈ 1.9 µM)
[5]
  IC50: 1.5 µg/mL (≈ 2.88 µM)
  IC90: 2 µg/mL (≈ 3.84 µM)
[6]
  IC50: 0.45 µg/mL (≈ 0.864 µM)
  IC90: 1.6 µg/mL (≈ 3.07 µM)
[7]
  IC50: 1.46 µg/mL (≈ 2.8 µM)
  IC90: 3.65 µg/mL (≈ 7.01 µM)
A549 (human lung cancer)
  IC50: 1.07 µg/mL (≈ 2.06 µM)
  IC90: 3.7 µg/mL (≈ 7.11 µM)
[8]
  IC50: 1.02 µg/mL (≈ 1.96 µM)
  IC90: 1.94 µg/mL (≈ 3.73 µM)
[9]
  IC50: 0.71 µg/mL (≈ 1.36 µM)
  IC90: 3.85 µg/mL (≈ 7.4 µM)
[10]
  IC50: 2.02 µg/mL (≈ 3.88 µM)
  IC90: 3.61 µg/mL (≈ 6.93 µM)
[11]
  IC50: 0.75 µg/mL (≈ 1.44 µM)
  IC90: 8.96 µg/mL (≈ 17.2 µM)
[12]
  IC50: 1.84 µg/mL (≈ 3.53 µM)
  IC90: 3.98 µg/mL (≈ 7.65 µM)
PC-3 (prostate cancer)
  IC50: 1.68 µg/mL (≈ 3.23 µM)
  IC90: 9.92 µg/mL (≈ 19.1 µM)
[13]
  IC50: 0.25 µg/mL (≈ 0.48 µM)
  IC90: 2.38 µg/mL (≈ 4.57 µM)
[14]
  IC50: 1.59 µg/mL (≈ 3.05 µM)
  IC90: 3.77 µg/mL (≈ 7.24 µM)
[15]
  IC50: 0.89 µg/mL (≈ 1.71 µM)
  IC90: 1.84 µg/mL (≈ 3.53 µM)
[16]
  IC50: 1.5 µg/mL (≈ 2.88 µM)
  IC90: 9.94 µg/mL (≈ 19.1 µM)
[17]
  IC50: 5.91 µg/mL (≈ 11.4 µM)
  IC90: 10.9 µg/mL (≈ 21 µM)
MG63 (osteosarcoma)
  IC50: 1.08 µg/mL (≈ 2.07 µM)
  IC90: 2.56 µg/mL (≈ 4.92 µM)

## Cc1c(CN(C)CCOC(=O)CCC(=O)O)oc2c1C(=O)C(=O)c1c-2ccc2c(C)cccc12 [BS-TA-73]
[1]
  IC50: 0.38 µg/mL (≈ 0.82 µM)
  IC90: 1.55 µg/mL (≈ 3.34 µM)
[2]
  IC50: 0.27 µg/mL (≈ 0.583 µM)
  IC90: 0.73 µg/mL (≈ 1.58 µM)
[3]
  IC50: 0.21 µg/mL (≈ 0.453 µM)
  IC90: 0.68 µg/mL (≈ 1.47 µM)
[4]
  IC50: 0.98 µg/mL (≈ 2.11 µM)
  IC90: 3.4 µg/mL (≈ 7.34 µM)
[5]
  IC50: 1.38 µg/mL (≈ 2.98 µM)
  IC90: 2.74 µg/mL (≈ 5.91 µM)
[6]
  IC50: 0.19 µg/mL (≈ 0.41 µM)
  IC90: 0.97 µg/mL (≈ 2.09 µM)
[7]
  IC50: 1.19 µg/mL (≈ 2.57 µM)
  IC90: 3.44 µg/mL (≈ 7.42 µM)
A549 (human lung cancer)
  IC50: 1.72 µg/mL (≈ 3.71 µM)
  IC90: 4.79 µg/mL (≈ 10.3 µM)
[8]
  IC50: 1.06 µg/mL (≈ 2.29 µM)
  IC90: 1.91 µg/mL (≈ 4.12 µM)
[9]
  IC50: 1.39 µg/mL (≈ 3 µM)
  IC90: 4.64 µg/mL (≈ 10 µM)
[10]
  IC50: 1.38 µg/mL (≈ 2.98 µM)
  IC90: 3.7 µg/mL (≈ 7.98 µM)
[11]
  IC50: 1.07 µg/mL (≈ 2.31 µM)
  IC90: 5 µg/mL (≈ 10.8 µM)
[12]
  IC50: 1.14 µg/mL (≈ 2.46 µM)
  IC90: 1.86 µg/mL (≈ 4.01 µM)
PC-3 (prostate cancer)
  IC50: 1.73 µg/mL (≈ 3.73 µM)
  IC90: 7.04 µg/mL (≈ 15.2 µM)
[13]
  IC50: 0.2 µg/mL (≈ 0.432 µM)
  IC90: 0.87 µg/mL (≈ 1.88 µM)
[14]
  IC50: 0.81 µg/mL (≈ 1.75 µM)
  IC90: 3.21 µg/mL (≈ 6.93 µM)
[15]
  IC50: 1 µg/mL (≈ 2.16 µM)
  IC90: 3.81 µg/mL (≈ 8.22 µM)
[16]
  IC50: 0.84 µg/mL (≈ 1.81 µM)
  IC90: 4.9 µg/mL (≈ 10.6 µM)
[17]
  IC50: 3.54 µg/mL (≈ 7.64 µM)
  IC90: 7.27 µg/mL (≈ 15.7 µM)
MG63 (osteosarcoma)
  IC50: 1.01 µg/mL (≈ 2.18 µM)
  IC90: 3.71 µg/mL (≈ 8 µM)
